From US11198680B2 (BioAxone BioSciences, Inc., priority 2016, dated 2021) come the findings set out here.

One series concerns AMPK (1 and 2). Nature of the series: KINOMEscan kinome screen. The arrangement: species or system human. To be noted: percent of negative control binding; 100% equals no interference. The text has this: (§1) The KINOMEscan™ screening platform (DiscoverX, Fremont, Calif.) employs a novel active site-directed competition binding assay to quantitatively measure interactions between test compounds and more than 450 human kinases and disease relevant mutant variants. […] Compounds that bind the kinase active site and directly (sterically) or indirectly (allosterically) prevent kinase binding to the immobilized ligand, will reduce the amount of kinase captured on the solid support. […] Screening “hits” are identified by measuring the amount of kinase captured in test versus control samples by using a quantitative, precise and ultra-sensitive qPCR method that detects the associated DNA label.
(§2) Kinase-tagged T7 phage strains were grown in parallel in 24-well blocks in an E. coli host derived from the BL21 strain. E. coli were grown to log-phase and infected with T7 phage from a frozen stock (multiplicity of infection=0.4) and incubated with shaking at 32° C. until lysis (90-150 minutes). The lysates were centrifuged (6,000×g) and filtered (0.2 μm) to remove cell debris. The remaining kinases were produced in HEK-293 cells and subsequently tagged with DNA for qPCR detection (Wein, et al. (2016) Nat. Comm. 7). […] Test compounds were prepared as 40× stocks in 100% DMSO and directly diluted into the assay. All reactions were performed in polypropylene 384-well plates in a final volume of 0.02 ml.

The next series relates to GCN. Nature of the series: KINOMEscan kinome screen. To be noted: percent of negative control binding. More on the design: species or system human.
Source text: as §1, §2

For series [1], the system named is ROCK2 activation (phospho-cofilin). The experiment in a line: Transient MCAO stroke model, phospho-cofilin Western blot left versus right brain. Type of series: in vivo, mouse. (In general: A western blot detects proteins with antibodies after separation by electrophoresis.)
Experimental: The murine intraluminal monofilament model of middle cerebral artery occlusion (MCAO) is used on mice in this study. MCAO involves the insertion of a surgical filament into the external carotid artery and threading it forward into the internal carotid artery until the tip occludes the origin of the MCA, resulting in a cessation of blood flow and subsequent brain infarction in the MCA territory. The technique is used herein to model transient occlusion. If the filament is removed after 1 h, reperfusion is achieved (transient MCAO). This study determines the most efficacious dose and route of administration that reduce Rho-kinase 2 (ROCK2) activation following transient MCAO-induced stroke in mice. The pharmacodynamic response is also determined in this study.
Twenty-eight 9-wk old C57BL/6 (Charles River Laboratories) were used in this study. For surgery, the mouse was placed in a supine position on an infrared heating pad. The fur over the ventral neck was shaved and the skin was disinfected with 70% ethanol and povidone iodine. Under a stereo dissecting microscope, a 1 cm midline incision was made on the neck and retractors were used to expose the left common carotid artery (CCA), the external carotid artery (ECA) and the internal carotid artery (ICA). The arteries were carefully dissected to free them from surrounding nerves and fascia. The ECA was dissected further distally and two 8-0 silk sutures are tied around the ECA stump and a vascular clamp was applied at the bifurcation of the CCA into the ECA and ICA. A small incision was made at the end of ECA stump with Vannas-style spring scissors. A blunt 5-0 monofilament suture (Doccol) was inserted into the incision and advanced from the lumen of the ECA into the ICA for a distance of 9-10 mm beyond the bifurcation of CCA to occlude the origin of MCA. For the mouse model, a distance of 9 mm-11 mm rostral to the CCA bifurcation is inserted. After 60 min., the monofilament was removed. The incision was sutured with 4.0 prolene sutures. […] The mouse is allowed to recover on a heating pad until thermoregulation is re-established.
For Western blot analysis, mice were anesthetized using isoflurane and decapitated. […]
20 μL protease inhibitor (Halt, Protease, Fisher Scientific, Pittsburgh, Pa.) and 10 μL phosphatase inhibitor (Fisher Scientific) were added to 1 mL RIPA buffer (Santa Cruz Biotechnology, Dallas, Tex.). […] The protein concentration of each sample was determined using the DC Protein Assay Kit and following the manufacturer's instructions.
The left and right hemispheres of each brain were homogenized and prepared for Western blotting, and the signal of phospho-cofilin was measured quantitatively by densitometry compared to an internal standard, cyclophilin. […]
The subject of series [2] is cynomolgus monkey hepatocytes. Nature of the series: Metabolism in cultured hepatocytes. Type of series: in vitro ADME.
Series [3] in a line: Systolic blood pressure in mice, tail cuff plethysmography. As to conditions: 0.5, 1, 3 mg/kg in drinking water; Example 18, present tense.
Experimental: Three test cohorts of mice are housed with unlimited access to normal chow and drinking water. For the first 5 days, the mice are handled daily to habituate them to contact and their blood pressures measured using a multi-animal tail cuff plethysmography apparatus (MRBP Tail Cuff Blood Pressure System; IITC Life Science; Woodland Hills, Calif.). […] These values serve as the baseline.
The third cohort receives normal, unadulterated drinking water. On day 8, blood pressure is measured for all mice.
After the day 8 blood pressure measurement, drug dosage in the 2 test cohorts is increased to 1 mg/kg-body weight and the cohort continues for 3 days at the new dose. On day 11, blood pressure is again recorded by tail cuff plethysmography for all mice during a 5 min. recording session.
Following the blood pressure recording, ON DAY 11, drug dosages in drinking water of test groups are increased up to 3 mg/kg-body weight and the cohorts continue for 3 days at the new dose. On day 14, blood pressure is recorded by tail cuff plethysmography for all mice during a 5 min. recording session.
In series [4] the target is T1, ROCK2 (Homo sapiens (Human), UniProt O75116). As to conditions: ratio of dissociation constants ROCK1/ROCK2.
Experimental: The assay is performed by combining the DNA-tagged kinase, immobilized ligand, and a test compound. The ability of the test compound to compete with the immobilized ligand is measured via quantitative PCR of the DNA tag.
The highest concentration tested was 30 μM.
For another series, the system named is mouse hepatocytes. Nature of the series: Metabolism in cultured hepatocytes. The series is classed as in vitro ADME.
For the next series, the system named is rat hepatocytes. Nature of the series: Metabolism in cultured hepatocytes. The series is classed as in vitro ADME. Here is the method:
Test articles were incubated in duplicate rat hepatocytes at 37° C. The reaction contained […] KHB buffer, a pH 7.4. At indicated times (0 min, 15 min, 30 min, 60 min, 120 min), an aliquot was removed from each experimental and control reaction and mixed with an equal volume of ice-cold methanol. Stopped reactions were incubated at least ten minutes at −20° C. The samples were centrifuged to remove precipitated protein, and the supernatants were analyzed by LC-MS/MS.

The next series deals with human hepatocytes. The experiment in a line: Metabolism in cultured hepatocytes. The series is classed as in vitro ADME.
For series [5], the target named is T1, ROCK2. The experiment in a line: Direct filter-binding radiometric kinase assay, IC50 determination. The series is classed as biochemical.
In another series the target is ROCK1 (Homo sapiens (Human), UniProt Q13464). The series is described as above. Type of series: biochemical. Here is the method:
Variations in ATP concentrations were tested to better understand potential selectivity in ischemic and diseased tissue where ATP concentrations may be low and impact selectivity.
[…] Both services use a direct filter-binding, radiometric kinase assay with slight variation in protocol.
The top concentration tested was 100 μM for both services. Test compounds were prepared in 100% DMSO at 50× final test concentration and were diluted to 1× in the assay with a final DMSO concentration of 2%.
For one assay, the substrate […] (SEQ ID NO:1) (30 μM) was mixed with reaction buffer (Table 4) and the kinase domain from either the ROCK1 or ROCK2 (as indicated in Table 4). Next, the compounds (in DMSO) were delivered into the mixture via acoustic mixing technology (Echo550, nanoliter range) (SelectScience, Waltham, Mass.), and incubated at RT for 20 min. […] Reactions were then spotted onto P81 ion exchange paper followed by scintillation counting.
The reaction was stopped by the addition of 3% phosphoric acid and 10 μL of the reaction was spotted onto P30 filtermat, washed 3 times in 75 mM phosphoric acid and once in methanol prior to scintillation counting.

Read-outs that look alike come from different tables or passages of the source.

Chain of ROCK1 (Q13464 2-1354 limits assumed): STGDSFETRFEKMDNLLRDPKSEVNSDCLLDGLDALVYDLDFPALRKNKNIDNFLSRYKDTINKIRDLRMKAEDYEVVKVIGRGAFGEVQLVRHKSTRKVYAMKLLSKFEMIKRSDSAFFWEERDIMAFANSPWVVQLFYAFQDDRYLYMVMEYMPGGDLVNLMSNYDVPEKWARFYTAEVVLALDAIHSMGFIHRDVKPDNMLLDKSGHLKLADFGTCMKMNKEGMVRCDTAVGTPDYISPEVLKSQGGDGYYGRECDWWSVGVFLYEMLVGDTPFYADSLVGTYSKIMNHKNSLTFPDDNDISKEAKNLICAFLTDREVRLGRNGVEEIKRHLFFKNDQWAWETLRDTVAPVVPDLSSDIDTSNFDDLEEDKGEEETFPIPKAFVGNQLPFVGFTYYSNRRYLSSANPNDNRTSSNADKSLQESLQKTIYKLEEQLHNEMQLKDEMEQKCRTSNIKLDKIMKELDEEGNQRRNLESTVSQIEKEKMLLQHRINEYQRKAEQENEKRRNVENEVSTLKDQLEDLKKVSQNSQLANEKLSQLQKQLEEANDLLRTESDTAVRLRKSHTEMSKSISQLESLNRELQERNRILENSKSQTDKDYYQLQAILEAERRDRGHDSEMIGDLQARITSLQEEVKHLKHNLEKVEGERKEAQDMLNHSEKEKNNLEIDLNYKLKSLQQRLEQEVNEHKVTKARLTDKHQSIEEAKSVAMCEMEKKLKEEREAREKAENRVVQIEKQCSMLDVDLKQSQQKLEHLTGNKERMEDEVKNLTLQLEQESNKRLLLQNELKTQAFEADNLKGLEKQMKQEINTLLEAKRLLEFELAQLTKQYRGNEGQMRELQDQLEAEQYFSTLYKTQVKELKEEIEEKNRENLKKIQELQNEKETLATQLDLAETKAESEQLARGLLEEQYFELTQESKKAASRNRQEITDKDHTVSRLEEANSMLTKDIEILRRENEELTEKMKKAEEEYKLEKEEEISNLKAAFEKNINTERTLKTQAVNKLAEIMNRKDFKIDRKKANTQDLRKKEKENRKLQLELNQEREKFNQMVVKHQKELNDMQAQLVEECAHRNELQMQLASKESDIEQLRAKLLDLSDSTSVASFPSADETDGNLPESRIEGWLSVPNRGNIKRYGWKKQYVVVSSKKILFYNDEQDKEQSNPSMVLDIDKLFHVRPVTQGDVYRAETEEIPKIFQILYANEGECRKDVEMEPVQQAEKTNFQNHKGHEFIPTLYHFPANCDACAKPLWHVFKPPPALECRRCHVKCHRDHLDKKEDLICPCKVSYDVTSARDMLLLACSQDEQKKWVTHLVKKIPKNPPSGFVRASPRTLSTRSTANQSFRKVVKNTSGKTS

Take `C[C@@H](N)C1CCN(S(=O)(=O)c2cccc3c(=O)[nH]ccc23)CC1` [1-hydroxy-BA-1049 (R)]: the “% Negative Binding, AMPK (1 and 2)” value in the series with AMPK (1 and 2) is recorded as 100%. In addition, in the series on GCN, the “% Negative Binding, GCN” value turned out to be 96%.
The IC50 is the concentration at which inhibition is half-maximal. For the compound `C[C@@H](N)C1CCN(S(=O)(=O)c2cccc3cnccc23)CC1` [BA-1049 (R)], the “duration of efficacy on phospho-cofilin” value in [1] (10 mg/kg after reperfusion, examined 4 hr or 24 hr) is “at least 24 hr”. For the same compound, the minimal effective levels result in series [1] (daily repeat dosing) was “less than 1 mg/kg”. For the same compound, the “minimal effective dose to reverse ROCK activation” value in series [1] (single intraperitoneal application, phospho-cofilin left versus right brain) is given as 1 mg/kg. Further, the “½ Life” value in series [2] is 15.3 min; in the series on mouse hepatocytes, 2.2 min; with rat hepatocytes, 60 min; in the series with human hepatocytes it was 41.7 min. For the same compound, in series [3], the “effect on average systolic blood pressure” value is listed as “little or no effect on average systolic blood pressure”. Moreover, the “Fractional Selectivity for ROCK2” value at ROCK2 [4] came out at 1.86. Besides, the IC50 worked out at 240 nM at ROCK2 [5] (10 μM ATP, Table 2, read-out: Compound IC50 ROCK2); 240 nM at ROCK2 [5] (Compound IC50 ROCK2 10 μM ATP, CRO Eurofins, 10 μM ATP); 340 nM at ROCK2 [5] (Compound IC50 ROCK2 10 μM ATP, CRO Reaction Biology, 10 μM ATP); 340 nM on ROCK2 [5] (Compound IC50 ROCK2 15 μM ATP, Km ATP 15 μM, Table 3); 340 nM at ROCK2 [5] (Compound IC50 ROCK2 15 μM ATP, Km ATP 15 μM, Table 7); 240 nM at ROCK2 [5] (read-out: Compound IC50 ROCK2 10 μM ATP, CRO Eurofins, 10 μM ATP). Besides, the half-maximal inhibitory concentration (IC50) turned out to be 3900 nM on ROCK1 (10 μM ATP, Table 2, read-out: Compound IC50 ROCK1); 3900 nM on ROCK1 (Compound IC50 ROCK1 10 μM ATP, CRO Eurofins, 10 μM ATP); 690 nM on ROCK1 (Compound IC50 ROCK1 10 μM ATP, CRO Reaction Biology, 10 μM ATP); 29600 nM on ROCK1 (Compound IC50 ROCK1 70 μM ATP, Km ATP 70 μM, Table 3); 29600 nM on ROCK1 (Compound IC50 ROCK1 70 μM ATP, Km ATP 70 μM, Table 7).
